Broadly, the IC50 is the point on the concentration scale where inhibition reaches its midpoint. For orientation: EC50 means the concentration at which the effect is half-maximal. In general, CC50 refers to the concentration at which the toxic effect on the cells reaches its halfway point.

Read-outs that look alike come from different tables or passages of the source.

The record followed here is patent publication US11952365B2, “Anti-viral compounds” (Aligos Therapeutics, Inc., priority 2020, dated 2024).

Series [1] addresses HRV3C (Human rhinovirus 14, UniProt P03303). Nature of the series: HRV3C protease assay (duplex, SAMDI-MS). In kind it is biochemical, HRV. The following applies: 30 mins preincubation. As to the method:
Protease assays were performed in 384-well low volume polypropylene microtiter plates at ambient temperature. For the duplex assay, 3CLpro and HRV3C was added using a Multidrop Combi (Thermo Scientific; Waltham, MA) and preincubated for 30 mins with small molecules. The reactions were initiated by the addition of the two peptide substrates. The reactions were incubated for 30 mins and quenched by the addition of 0.5% formic acid (final) with subsequent neutralization using 1% sodium bicarbonate (final). Internal standard peptides were added in 20 mM Hepes pH 8.0 for quantitation of the protease products. For SAMDI-MS analysis, 2 μL of each reaction mixture was transferred using a 384-channel automated liquid handler to SAMDI biochip arrays functionalized with a neutravidin-presenting self-assembled monolayer. The SAMDI arrays were incubated for 1 h in a humidified chamber to allow the specific immobilization of the biotinylated peptide substrates, cleaved products and internal standards. The samples were purified by washing the SAMDI arrays with deionized ultrafiltered water and dried with compressed air. A matrix comprising alpha-cyano cinnamic acid in 80% acetonitrile:20% aqueous ammonium citrate was applied in an automated format by dispensing 50 nL to each spot in the array. SAMDI-MS was performed using reflector-positive mode on an AB Sciex TOF-TOF 5800 System (AB Sciex, Framingham, MA) with 400 shots/spot analyzed in a random raster sampling. For data analysis, area under the curves (peaks) (AUCs) for the product and internal standard were calculated using the TOF/TOF Series Explorer (AB Sciex), and the amount of product formed was calculated using the equation (AUC product/AUC internal standard). The amount of product generated was calculated using the ratio of product area under the curve (AUC) divided by the AUC of the internal standard. Negative controls were pre-quenched with 0.5% formic acid final. Assay robustness was determined by Z-Factor. The IC50s were determined by fitting the curves using a four-parameter equation in Graphpad Prism 8.

The test system of series [2] is human beta-coronavirus OC43. Nature of the series: microbe, parasite or virus in culture. The class given is cell-based. Particulars: Betacoronavirus 1, OC43, HeLa, 144 h.
Series [3] in a line: Cytotoxicity plates without OC43 virus (cell-titer-glo). In kind it is cell-based, human. The following applies: human; HeLa cells without OC43 virus, class symbols. As for the experimental part: The human beta-coronavirus OC43 was purchased from ATCC (Manassas, VA) and propagated using HCT-8 human colorectal epithelial cells (ATCC). HeLa human cervical epithelial cells (ATCC) were used as susceptible host cell lines and were cultured using EMEM media, supplemented with 10% fetal bovine serum (FBS), 1% (v/v) penicillin/streptomycin (P/S), 1% (v/v) HEPES and 1% (v/v) Cellgro Glutagro™ supplement (all Corning, Manassas, VA) at 37° C. For the OC43 antiviral assay, 1.5×10^4 HeLa cells per well were plated in 100 μL complete media in white 96-well plates with clear bottoms at 37° C. for up to 24 h to facilitate attachment and allow cells to recover from seeding stresses. Next day, the cell culture medium was removed. Serially diluted compounds in 100 μL assay media (EMEM, 2% FBS, 1% P/S, 1% Cellgro Glutagro™ supplement, 1% HEPES) were added to the cells and incubated for 4H at 37° C. in a humidified 5% CO2 incubator. 100 μL of OC43 virus stock was diluted to a concentration known to produce optimal cytopathic effect, inducing 80-90% reduction in cell viability. 96-well plates were incubated for 6 (HeLa) days at 33° C.; each plate contains uninfected control wells as well as virus-infected wells that were not treated with compound. Cytotoxicity plates without the addition of OC43 virus were carried out in parallel. At the end of the incubation period, 100 μL cell culture supernatant was replaced with 100 μL cell-titer-glo reagent (Promega, Madison, WI) and incubated for at least 10 min at rt prior to measuring luminescence. Luminescence was measured on a Perkin Elmer (Waltham, MA) Envision plate reader. Antiviral % inhibition was calculated as follows: [(Compound treated cells infected sample)−(no compound infected control)]/[(Uninfected control)−(no compound infected control)]*100; Using GraphPad (San Diego, CA) prism software version 8.3.1, the antiviral dose-response plot was generated as a sigmoidal fit, log(inhibitor) vs response-variable slope (four parameters) model and the EC50 was calculated which is the predicted compound concentration corresponding to a 50% inhibition of the viral cytopathic effect.

Series [4] relates to SARS-CoV-2-GHB-03021/2020. Nature of the series: microbe, parasite or virus in culture. The class given is cell-based. The following applies: Severe acute respiratory syndrome coronavirus 2, Vero C1008, 96 h; read-out: VeroE6 + CP (EC50).
Series [5] has as its target T1, human cathepsin L (Homo sapiens, UniProt P07711).
T1 construct: purchased R&D Systems
Nature of the series: cathepsin L assay. In kind it is biochemical. The following applies: 10 pM human cathepsin L, Z-FR-AMC 2 μM, class symbols. As for the experimental part:
For the cathepsin L assay, 10 pM of human cathepsin L (R&D Systems; Minneapolis, MN) was preincubated for 30 mins with test compounds. Reactions were initiated by the addition of a peptide substrate Z-FR-AMC (final concentration 2 μM, Anaspec; Fremont, CA). Fluorescence was measured at 2-minute intervals for 30 mins using a 355/460 excitation/emission filter module on an Envision plate reader (Perkin Elmer; Waltham, MA). The IC50 values were calculated for each assay by fitting the curves using a four-parameter equation in GraphPad Prism.

A short description of series [6]: in vitro. The following applies: African green monkey, VeroE6 + CP (CC50), Vero E6-eGFP cells with CP-100356, absence of virus, MTS.
For series [7], the target named is 3CLpro (Severe acute respiratory syndrome coronavirus 2, UniProt P0DTD1). Nature of the series: SARS-CoV-2 3CLpro protease assay (duplex, SAMDI-MS). The class given is biochemical. Also noted: For the duplex assay, 3CLpro and HRV3C was added. The following applies: 3CLpro, 30 mins preincubation, read-out: SARS-Cov-2 IC50.
[8] abbreviates: HRV3C, class symbols, read-out: HRV IC50.
[9] abbreviates: OC43 in HeLa cells, 6 days at 33° C., class symbols, read-out: EC50.
Where [10] appears, read: OC43 in HeLa cells, 6 days at 33° C., bound, read-out: EC50.

Consider `CC1(C)[C@@H]2[C@@H](C(=O)NC(C[C@@H]3CCNC3=O)C(=O)C(=O)NCc3ccccc3)N(C(=O)c3cc4ccccc4[nH]3)C[C@@H]21` (stereo partly drawn) [Compound 4, N-benzyl-3-[[(1R,2S,5S)-3-(1H-indole-2-carbonyl)-6,6-dimethyl-3-azabicyclo[3.1.0]hexan-2-yl]formamido]-2-oxo-4-[(3S)-2-oxopyrrolidin-3-yl]butanamide], for which the IC50 in series [1] (setting [8]) was in the range of 2 to 20 µM; in series [5], 0.1 to 1 µM; in series [7] (class symbols), 0.2 to 2 µM. Also, the half-maximal effective concentration (EC50) in series [2] (setting [9]) and in series [4] was 1 to 10 µM each time. For the same compound, the CC50 at 6 days in series [3] is over 10 µM. Besides, the CC50 in series [6] (numeric bounds) was over 100 µM.
For the compound `O=C1NCC[C@H]1C[C@H](NC(=O)[C@@H]1[C@H]2CCC[C@H]2CN1C(=O)c1cc2ncccc2[nH]1)C(=O)CO` [Compound 78, (1S,3aR,6aS)—N—((S)-4-hydroxy-3-oxo-1-((S)-2-oxopyrrolidin-3-yl)butan-2-yl)-2-(1H-pyrrolo[3,2-b]pyridine-2-carbonyl)octahydrocyclopenta[c]pyrrole-1-carboxamide], the IC50 in series [1] (setting [8]) was 2 to 20 µM; in series [5], at least 10 µM; in series [7] (class symbols), 0.02 to 0.2 µM. In addition, the EC50 in series [2] (setting [9]) was in the range of 1 to 10 µM; in series [4] it was 10 to 100 µM. For the same compound, in series [3], the CC50 at 6 days was over 10 µM. In series [6] (numeric bounds), the cytotoxic concentration (CC50) was over 100 µM.
As to `O=C(NCc1ccccc1)C(=O)C(C[C@@H]1CCNC1=O)NC(=O)[C@@H]1[C@H]2CC[C@H](C2)N1C(=O)c1cc2ccccc2[nH]1` (stereo partly drawn) [Compound 8], the IC50 in series [1] (setting [8]) lay in the range of 2 to 20 µM; in series [5], 0.1 to 1 µM; in series [7] (class symbols) it was 0.2 to 2 µM. Besides, the EC50 in series [2] (setting [9]) fell in the range of 1 to 10 µM; in series [4], 10 to 100 µM. For the same compound, the CC50 at 6 days in series [3] is over 10 µM. Moreover, the CC50 in series [6] (numeric bounds) was over 100 µM.
For the compound `O=C1NCC[C@H]1C[C@H](NC(=O)[C@@H]1[C@H]2CCC[C@H]2CN1C(=O)c1cc2c(=O)[nH]ccc2[nH]1)C(=O)CO` [Compound 76, (1S,3aR,6aS)—N-[(2S)-4-hydroxy-3-oxo-1-[(3S)-2-oxopyrrolidin-3-yl]butan-2-yl]-2-{4-oxo-1H,5H-pyrrolo[3,2-c]pyridine-2-carbonyl}-hexahydro-1H-cyclopenta[c]pyrrole-1-carboxamide], the half-inhibitory concentration (IC50) is 0.2 to 2 µM in series [1] (HRV IC50, HRV3C, class symbols); at least 10 µM in series [5]; 0.02 to 0.2 µM in series [7] (class symbols). Besides, the figures for the concentration for a half-maximal effect (EC50) in series [2] (setting [10]) and in series [4] were over 10 µM and 10 to 100 µM, respectively. The compound further showed a CC50 at 6 days in series [3] of over 10 µM. The CC50 in series [6] (numeric bounds) is over 100 µM.
On to `Cn1ccc2[nH]c(C(=O)N3C[C@@H]4CCC[C@@H]4[C@H]3C(=O)N[C@@H](C[C@@H]3CCNC3=O)C(=O)CO)cc2c1=O` [Compound 77, (1S,3aR,6aS)—N—((S)-4-hydroxy-3-oxo-1-((S)-2-oxopyrrolidin-3-yl)butan-2-yl)-2-(5-methyl-4-oxo-4,5-dihydro-1H-pyrrolo[3,2-c]pyridine-2-carbonyl)octahydrocyclopenta[c]pyrrole-1-carboxamide], for which the concentration for half-maximal inhibition (IC50) is 2 to 20 µM in series [1] (HRV IC50, HRV3C, class symbols); at least 10 µM in series [5]; 0.02 to 0.2 µM in series [7] (class symbols). The EC50 in series [2] was over 10 µM; in series [4] it was 10 to 100 µM. In addition, in series [3], the CC50 at 6 days is over 10 µM. The CC50 in series [6] (class symbols) was over 10 µM.
As for `COc1cccc2[nH]c(C(=O)N3C[C@@H]4CCC[C@@H]4[C@H]3C(=O)N[C@@H](C[C@@H]3CCNC3=O)C(=O)C(=O)NCC(F)(F)F)cc12` [Compound 114], the IC50 is 2 to 20 µM in series [1] (setting [8]), at least 10 µM in series [5] and 0.2 to 2 µM in series [7] (class symbols). In addition, the EC50 was in the range of 1 to 10 µM in series [2] (setting [9]) and 10 to 100 µM in series [4]. In series [3], the CC50 at 6 days is over 10 µM. Besides, in series [6] (numeric bounds), the CC50 is over 50 µM.
On to `COc1cccc2[nH]c(C(=O)N3C[C@@H]4CCC[C@@H]4[C@H]3C(=O)N[C@@H](C[C@@H]3CCNC3=O)C(=O)c3nc4ccccc4[nH]3)cc12` [Compound 92, (1S,3aR,6aS)—N-[(2S)-1-(1H-1,3-benzodiazol-2-yl)-1-oxo-3-[(3S)-2-oxopyrrolidin-3-yl]propan-2-yl]-2-(4-methoxy-1H-indole-2-carbonyl)-hexahydro-1H-cyclopenta[c]pyrrole-1-carboxamide], for which the IC50 in series [1] (HRV IC50, HRV3C, bound) is over 10 µM; in series [5] it was at least 10 µM; in series [7] (class symbols), 0.2 to 2 µM. Besides, the results for the EC50 in series [2] (setting [10]) and in series [4] were over 10 µM and 10 to 100 µM, respectively. This compound registered a CC50 at 6 days in series [3] of over 10 µM. In addition, the CC50 in series [6] (numeric bounds) was over 100 µM.
With `COc1cccc2[nH]c(C(=O)N3C[C@@H]4CCC[C@@H]4[C@H]3C(=O)N[C@@H](C[C@@H]3CCNC3=O)C(=O)c3cnc[nH]3)cc12` [Compound 74, (1S,3aR,6aS)—N-[(2S)-1-(3H-imidazol-4-yl)-1-oxo-3-[(3S)-2-oxopyrrolidin-3-yl]propan-2-yl]-2-(4-methoxy-1H-indole-2-carbonyl)-hexahydro-1H-cyclopenta[c]pyrrole-1-carboxamide], the IC50 was over 10 µM in series [1] (HRV IC50, HRV3C, bound); at least 10 µM in series [5]; over 10 µM in series [7] (bound). Besides, the figures for the EC50 in series [2] and in series [4] were over 10 µM and 10 to 100 µM, respectively. This compound had a cytotoxic concentration (CC50) at 6 days in series [3] of over 10 µM. In addition, the CC50 in series [6] (class symbols) was over 10 µM.
On to `O=C(NCc1ccccc1)C(=O)C(C[C@@H]1CCNC1=O)NC(=O)[C@@H]1[C@H]2CCC[C@H]2CN1C(=O)c1cc2ccccc2[nH]1` (stereo partly drawn) [Compound 2, (1S,3aR,6aS)—N-(4-(benzylamino)-3,4-dioxo-1-((S)-2-oxopyrrolidin-3-yl)butan-2-yl)-2-(1H-indole-2-carbonyl)-octahydrocyclopenta[c]pyrrole-1-carboxamide], for which the figures for the IC50 in series [1] (setting [8]), in series [5] and in series [7] (class symbols) were 2 to 20 µM, 1 to 10 µM and 0.2 to 2 µM, respectively. Moreover, the EC50 was 0.1 to 1 µM in series [2] (setting [9]) and 1 to 10 µM in series [4]. In series [3], this compound registered a 50% cytotoxic concentration (CC50) at 6 days of over 10 µM. The CC50 in series [6] (class symbols) is over 10 µM.
